PubChem BioAssay AID1918934 (Molecular Pharmacology Branch, DTP, NCI, 2023)

Test system: 292921-168-R-J2-PDC complex spheroid viability
Experiment: Anticancer human tumor 292921-168-R-J2-PDC patient-derived pancreatic carcinoma cell line growth inhibition
Details: for IC50: curve of first compound; for viability, T/C: stronger effect = lower value
Outline: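 Multicellular complex spheroids of tumor cells with human endothelial cells (HUVEC) and mesenchymal stem cells; the LSD1 inhibitor iadademstat was combined with standard-of-care or investigational agents. Top concentration at or near clinical Cmax, half-log dilutions; final DMSO ≤0.25%.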

[1] = second compound 0.1 µM, first compound 0.0316 µM
[2] = second compound 0.1 µM, first compound 0.1 µM
[3] = second compound 0.1 µM, first compound 0.316 µM
[4] = second compound 0.1 µM, first compound 1 µM
[5] = second compound 0.316 µM, first compound 0.0316 µM
[6] = second compound 0.316 µM, first compound 0.1 µM
[7] = second compound 0.316 µM, first compound 0.316 µM
[8] = second compound 0.316 µM, first compound 1 µM
[9] = second compound 1 µM, first compound 0.0316 µM
[10] = second compound 1 µM, first compound 0.1 µM
[11] = second compound 1 µM, first compound 0.316 µM
[12] = second compound 1 µM, first compound 1 µM
[13] = second compound 3.16 µM, first compound 0.0316 µM
[14] = second compound 3.16 µM, first compound 0.1 µM
[15] = second compound 3.16 µM, first compound 0.316 µM
[16] = second compound 3.16 µM, first compound 1 µM
[17] = second compound 10 µM, first compound 0.0316 µM
[18] = second compound 10 µM, first compound 0.1 µM
[19] = second compound 10 µM, first compound 0.316 µM
[20] = second compound 10 µM, first compound 1 µM
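Further: seven day compound exposure before luminescent viability read.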
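Wherever viability, T/C is given: 100% = DMSO vehicle control wells.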

COc1ccc([C@@H](O)c2cc(-c3ncnc4cc(N5CCOCC5)ccc34)c(F)cc2Cl)nn1 + NC1CCC(NC2CC2c2ccccc2)CC1
IC50 (second compound 0.1 µM): 205 nM
IC50 (second compound 0.316 µM): 191 nM
IC50 (second compound 1 µM): 102 nM
IC50 (second compound 3.16 µM): 101 nM
IC50 (second compound 10 µM): 35 nM
viability, T/C [1]: 61.8%
viability, T/C [2]: 61.3%
viability, T/C [3]: 42.7%
viability, T/C [4]: 30.4%
viability, T/C (second compound 0.1 µM, first compound 3.16 µM): 19.9%
viability, T/C (second compound 0.1 µM, first compound 10 µM): 11.7%
viability, T/C [5]: 61.1%
viability, T/C [6]: 57.7%
viability, T/C [7]: 44.4%
viability, T/C [8]: 26.2%
viability, T/C (second compound 0.316 µM, first compound 3.16 µM): 17.1%
viability, T/C (second compound 0.316 µM, first compound 10 µM): 11.8%
viability, T/C [9]: 59.9%
viability, T/C [10]: 50.4%
viability, T/C [11]: 38.1%
viability, T/C [12]: 24.9%
viability, T/C (second compound 1 µM, first compound 3.16 µM): 18.4%
viability, T/C (second compound 1 µM, first compound 10 µM): 11.2%
viability, T/C [13]: 50%
viability, T/C [14]: 53.7%
viability, T/C [15]: 40.4%
viability, T/C [16]: 27.1%
viability, T/C (second compound 3.16 µM, first compound 3.16 µM): 16.4%
viability, T/C (second compound 3.16 µM, first compound 10 µM): 10.7%
viability, T/C [17]: 48.6%
viability, T/C [18]: 50%
viability, T/C [19]: 36.2%
viability, T/C [20]: 28.2%
viability, T/C (second compound 10 µM, first compound 3.16 µM): 18.1%
viability, T/C (second compound 10 µM, first compound 10 µM): 11.6%

Nc1ncn(C2CC(O)C(CO)S2)c(=O)n1 (stereo not given) + NC1CCC(NC2CC2c2ccccc2)CC1
IC50 (second compound 0.1 µM): 43.8 nM
IC50 (second compound 0.316 µM): 40 nM
IC50 (second compound 1 µM): 37.2 nM
IC50 (second compound 3.16 µM): 34.6 nM
IC50 (second compound 10 µM): 30.7 nM
viability, T/C (second compound 0.1 µM, first compound 0.000949 µM): 68.9%
viability, T/C (second compound 0.1 µM, first compound 0.003 µM): 62%
viability, T/C (second compound 0.1 µM, first compound 0.00949 µM): 63.2%
viability, T/C (second compound 0.1 µM, first compound 0.03 µM): 57.1%
viability, T/C (second compound 0.1 µM, first compound 0.0949 µM): 36.8%
viability, T/C (second compound 0.1 µM, first compound 0.3 µM): 10.9%
viability, T/C (second compound 0.316 µM, first compound 0.000949 µM): 66.8%
viability, T/C (second compound 0.316 µM, first compound 0.003 µM): 64.3%
viability, T/C (second compound 0.316 µM, first compound 0.00949 µM): 59.1%
viability, T/C (second compound 0.316 µM, first compound 0.03 µM): 57.2%
viability, T/C (second compound 0.316 µM, first compound 0.0949 µM): 33.2%
viability, T/C (second compound 0.316 µM, first compound 0.3 µM): 11.2%
viability, T/C (second compound 1 µM, first compound 0.000949 µM): 52.2%
viability, T/C (second compound 1 µM, first compound 0.003 µM): 62.7%
viability, T/C (second compound 1 µM, first compound 0.00949 µM): 55.2%
viability, T/C (second compound 1 µM, first compound 0.03 µM): 53.9%
viability, T/C (second compound 1 µM, first compound 0.0949 µM): 33.6%
viability, T/C (second compound 1 µM, first compound 0.3 µM): 10.3%
viability, T/C (second compound 3.16 µM, first compound 0.000949 µM): 55.1%
viability, T/C (second compound 3.16 µM, first compound 0.003 µM): 61.9%
viability, T/C (second compound 3.16 µM, first compound 0.00949 µM): 58.6%
viability, T/C (second compound 3.16 µM, first compound 0.03 µM): 52.9%
viability, T/C (second compound 3.16 µM, first compound 0.0949 µM): 28%
viability, T/C (second compound 3.16 µM, first compound 0.3 µM): 11%
viability, T/C (second compound 10 µM, first compound 0.000949 µM): 56.3%
viability, T/C (second compound 10 µM, first compound 0.003 µM): 61.2%
viability, T/C (second compound 10 µM, first compound 0.00949 µM): 59.6%
viability, T/C (second compound 10 µM, first compound 0.03 µM): 49.6%
viability, T/C (second compound 10 µM, first compound 0.0949 µM): 28.2%
viability, T/C (second compound 10 µM, first compound 0.3 µM): 11.5%

O=C(C=Cn1cnc(-c2cc(C(F)(F)F)cc(C(F)(F)F)c2)n1)NNc1cnccn1 + NC1CCC(NC2CC2c2ccccc2)CC1
IC50 (second compound 0.1 µM): 5.43 nM
IC50 (second compound 0.316 µM): 8.67 nM
IC50 (second compound 1 µM): 10.6 nM
IC50 (second compound 3.16 µM): 6.77 nM
IC50 (second compound 10 µM): 5.92 nM
viability, T/C (second compound 0.1 µM, first compound 0.00316 µM): 52.7%
viability, T/C (second compound 0.1 µM, first compound 0.01 µM): 47.4%
viability, T/C [1]: 25.9%
viability, T/C [2]: 13.2%
viability, T/C [3]: 6.69%
viability, T/C [4]: 6.34%
viability, T/C (second compound 0.316 µM, first compound 0.00316 µM): 54.7%
viability, T/C (second compound 0.316 µM, first compound 0.01 µM): 50.4%
viability, T/C [5]: 27%
viability, T/C [6]: 13.6%
viability, T/C [7]: 8.09%
viability, T/C [8]: 7.2%
viability, T/C (second compound 1 µM, first compound 0.00316 µM): 56.7%
viability, T/C (second compound 1 µM, first compound 0.01 µM): 52.1%
viability, T/C [9]: 29%
viability, T/C [10]: 13.8%
viability, T/C [11]: 9.01%
viability, T/C [12]: 7.09%
viability, T/C (second compound 3.16 µM, first compound 0.00316 µM): 53%
viability, T/C (second compound 3.16 µM, first compound 0.01 µM): 48.5%
viability, T/C [13]: 29.9%
viability, T/C [14]: 12.9%
viability, T/C [15]: 8.57%
viability, T/C [16]: 8.41%
viability, T/C (second compound 10 µM, first compound 0.00316 µM): 53.2%
viability, T/C (second compound 10 µM, first compound 0.01 µM): 47.8%
viability, T/C [17]: 30.2%
viability, T/C [18]: 16.3%
viability, T/C [19]: 9.15%
viability, T/C [20]: 8.4%
